Reference: the NIST ThermoML archive (doi:10.1021/je0202073)

Legend:
[1] = xn = mol fraction of the nth substance listed; conditions: 101.3 kPa, Liquid
[2] = excess molar enthalpy (molar enthalpy of mixing); xn = mol fraction of the nth substance listed; conditions: 101.3 kPa, Liquid, Calvet calorimetry

CC(C)(C)O [2-methylpropan-2-ol] + CCOC(C)=O
Conditions	excess molar enthalpy [kcal/mol]	excess molar volume [m3/mol]
[1], 303.15 K, x2 = 0.0458	–	1.14e-06
[1], 303.15 K, x2 = 0.0972	–	2.65e-06
[1], 303.15 K, x2 = 0.1702	–	4.43e-06
[1], 303.15 K, x2 = 0.1982	–	4.99e-06
[1], 303.15 K, x2 = 0.2483	–	5.78e-06
[1], 303.15 K, x2 = 0.2718	–	6.12e-06
[1], 303.15 K, x2 = 0.3074	–	6.6e-06
[1], 303.15 K, x2 = 0.3613	–	7.08e-06
[1], 303.15 K, x2 = 0.3973	–	7.3e-06
[1], 303.15 K, x2 = 0.4626	–	7.52e-06
[1], 303.15 K, x2 = 0.5178	–	7.55e-06
[1], 303.15 K, x2 = 0.5274	–	7.54e-06
[1], 303.15 K, x2 = 0.5449	–	7.51e-06
[1], 303.15 K, x2 = 0.5624	–	7.48e-06
[1], 303.15 K, x2 = 0.5722	–	7.42e-06
[1], 303.15 K, x2 = 0.5885	–	7.35e-06
[1], 303.15 K, x2 = 0.5998	–	7.3e-06
[1], 303.15 K, x2 = 0.6022	–	7.27e-06
[1], 303.15 K, x2 = 0.6086	–	7.2e-06
[1], 303.15 K, x2 = 0.6124	–	7.17e-06
[1], 303.15 K, x2 = 0.6336	–	7.06e-06
[1], 303.15 K, x2 = 0.6501	–	6.87e-06
[1], 303.15 K, x2 = 0.7084	–	6.24e-06
[1], 303.15 K, x2 = 0.7732	–	5.29e-06
[1], 303.15 K, x2 = 0.8111	–	4.6e-06
[1], 303.15 K, x2 = 0.8533	–	3.72e-06
[1], 303.15 K, x2 = 0.8915	–	2.84e-06
[1], 303.15 K, x2 = 0.9686	–	8.6e-07
[1], 318.15 K, x2 = 0.0796	–	2.37e-06
[1], 318.15 K, x2 = 0.1377	–	3.7e-06
[1], 318.15 K, x2 = 0.1899	–	4.83e-06
[1], 318.15 K, x2 = 0.2558	–	6.14e-06
[1], 318.15 K, x2 = 0.2985	–	6.84e-06
[1], 318.15 K, x2 = 0.3703	–	7.44e-06
[1], 318.15 K, x2 = 0.4344	–	7.86e-06
[1], 318.15 K, x2 = 0.4633	–	7.93e-06
[1], 318.15 K, x2 = 0.5377	–	7.95e-06
[1], 318.15 K, x2 = 0.5626	–	7.87e-06
[1], 318.15 K, x2 = 0.6284	–	7.55e-06
[1], 318.15 K, x2 = 0.6913	–	7e-06
[1], 318.15 K, x2 = 0.767	–	5.96e-06
[1], 318.15 K, x2 = 0.8516	–	4.18e-06
[1], 318.15 K, x2 = 0.8891	–	3.61e-06
[1], 318.15 K, x2 = 0.9294	–	2.37e-06
[2], 299.15 K, x2 = 0.0546	0.0899	–
[2], 299.15 K, x2 = 0.1163	0.178	–
[2], 299.15 K, x2 = 0.181	0.263	–
[2], 299.15 K, x2 = 0.2456	0.332	–
[2], 299.15 K, x2 = 0.3079	0.385	–
[2], 299.15 K, x2 = 0.3672	0.422	–
[2], 299.15 K, x2 = 0.4207	0.445	–
[2], 299.15 K, x2 = 0.4707	0.459	–
[2], 299.15 K, x2 = 0.5157	0.464	–
[2], 299.15 K, x2 = 0.5541	0.462	–
[2], 299.15 K, x2 = 0.564	0.46	–
[2], 299.15 K, x2 = 0.6199	0.444	–
[2], 299.15 K, x2 = 0.68	0.413	–
[2], 299.15 K, x2 = 0.7438	0.365	–
[2], 299.15 K, x2 = 0.8091	0.299	–
[2], 299.15 K, x2 = 0.8769	0.212	–
[2], 299.15 K, x2 = 0.9385	0.117	–
[2], 318.15 K, x2 = 0.0538	0.0799	–
[2], 318.15 K, x2 = 0.1146	0.164	–
[2], 318.15 K, x2 = 0.1733	0.24	–
[2], 318.15 K, x2 = 0.2313	0.307	–
[2], 318.15 K, x2 = 0.2953	0.361	–
[2], 318.15 K, x2 = 0.3487	0.396	–
[2], 318.15 K, x2 = 0.3987	0.422	–
[2], 318.15 K, x2 = 0.4461	0.438	–
[2], 318.15 K, x2 = 0.4878	0.445	–
[2], 318.15 K, x2 = 0.5176	0.448	–
[2], 318.15 K, x2 = 0.5676	0.444	–
[2], 318.15 K, x2 = 0.6236	0.429	–
[2], 318.15 K, x2 = 0.6844	0.398	–
[2], 318.15 K, x2 = 0.7436	0.352	–
[2], 318.15 K, x2 = 0.8108	0.285	–
[2], 318.15 K, x2 = 0.8797	0.198	–
[2], 318.15 K, x2 = 0.9442	0.104	–
